Measurements taken from patent US9133439B2, “Differentiation of human embryonic stem cells” (Janssen Biotech, Inc., priority 2009, dated 2015).
“And” between values parts separate entries of the source, which are not always exact repeats. Identical values can stand only once. Like-named read-outs stand apart in the source and are kept apart here.

How the values were obtained:
[1] = tested on: H1 human embryonic stem cells (differentiated); assay type: cell-based
[2] = tested on: H1 human embryonic stem cells (differentiated); assay: Example 3: confirmation screen, total cell number (nuclei) by high content analysis; assay type: cell-based; conditions: relative to control treatment
From the text: All wells were fed and treated identically.

[3] = ratio for well treated with individual compound relative to average of wells with DMSO alone
[4] = 2.5 uM, steps 3 and 4, triplicate

| Molecule | Total Nuclei [1, 3] | other results |
| --- | --- | --- |
| Nc1ncnc2c1c(I)cn2[C@@H]1O[C@H](CO)[C@@H](O)[C@H]1O [5-Iodotubercidin] | 0.08 | – |
| COc1cc(/C=C(\C#N)C(N)=O)cc(CSc2nc3ccccc3s2)c1O [AG-825] | 1.05 | – |
| N#CC(C#N)=Cc1ccc(O)c(O)c1 [Tyrphostin 23] | 1.03 | – |
| O=C1Nc2ccc(I)cc2/C1=C/c1cc(Br)c(O)c(Br)c1 [GW 5074] | 1.06 | Total Nuclei Ratio [2, 4]: 1.11 |
| NC(N)=NCCNS(=O)(=O)c1cccc2cnccc12 [HA-1004] | 1.08 | Total Nuclei Ratio [2, 4]: 1.08 |
| O=C(O)c1cc(NCc2cc(O)ccc2O)ccc1O [HDBA, 2-Hydroxy-5-(2,5-dihydroxybenzylamino)benzoic acid] | 0.99 | – |
| N#CC(C#N)=Cc1cc(O)c(O)c(O)c1 [Tyrphostin 25] | 1.02 | – |
| NCCNS(=O)(=O)c1cccc2cnccc12 [H-9] | 1.00 | Total Nuclei Ratio [2, 4]: 1.13 |
| COC[C@H]1OC(=O)c2coc3c2[C@@]1(C)C1=C(C3=O)[C@@H]2CCC(=O)[C@@]2(C)C[C@H]1OC(C)=O [Wortmannin] | 1.10 | – |
| CC(C)(C)c1cc(C=C(C#N)C#N)cc(C(C)(C)C)c1O [Tyrphostin 9] | 0.28 | – |
| CC(=O)c1c(O)c(C)c(O)c(Cc2c(O)c3c(c(C(=O)/C=C/c4ccccc4)c2O)OC(C)(C)C=C3)c1O [Rottlerin] | 0.24 | – |
| O=c1cc(N2CCOCC2)oc2c(-c3ccccc3)cccc12 [LY 294002] | 1.08 | Total Nuclei Ratio [2, 4]: 1.03 |
| N#C/C(=C\c1cc(Cl)cc(Cl)c1)c1cccnc1 [RG-14620] | 1.02 | – |
| CC(C)(C)n1nc(-c2ccc(Cl)cc2)c2c(N)ncnc21 [PP2] | 1.01 | – |
| N#CC(C#N)=Cc1cc(O)c(O)c([N+](=O)[O-])c1 [Tyrphostin AG 1288] | 1.04 | – |
| O=C1Nc2ccccc2/C1=C1/Nc2ccccc2C1=O [Indirubin] | 1.01 | – |
| CC(C)c1cnc(NC(=O)Cc2ccccc2)s1 [BML-259] | 1.04 | Total Nuclei Ratio [2, 4]: 0.99 |
| O=C1Cc2c([nH]c3ccc(Br)cc23)-c2ccccc2N1 [Kenpaullone] | 0.99 | Total Nuclei Ratio [2, 4]: 1.02 |
| C#Cc1cccc(Nc2ncnc3cc(OC)c(OC)cc23)c1 [BML-265] | 1.06 | Total Nuclei Ratio [2, 4]: 0.97 |
| CC(C)(C)c1cc(/C=C(\C#N)C(N)=S)cc(C(C)(C)C)c1O [AG-879] | 1.03 | – |
| Cn1cnc2c(NCc3ccccc3)nc(NCCO)nc21 [Olomoucine] | 1.04 | – |
| O=S(=O)(c1cccc2cnccc12)N1CCCNCC1 [HA-1077] | 1.02 | Total Nuclei Ratio [2, 4]: 1.07 |
| CN([C@@H](Cc1ccc(OS(=O)(=O)c2cccc3cnccc23)cc1)C(=O)N1CCN(c2ccccc2)CC1)S(=O)(=O)c1cccc2cnccc12 [KN-62] | 0.96 | Total Nuclei Ratio ([2]; 1 uM, steps 3 and 4): 1.02 and 1.03 |
| N#CC(C#N)=C(N)/C(C#N)=C/c1cc(O)c(O)c(O)c1 [Tyrphostin 51] | 1.04 | – |
| O=c1c(-c2ccc(O)cc2)coc2cc(O)ccc12 [Daidzein] | 1.03 | – |
| CC(C)n1cnc2c(NCc3ccccc3)nc(NCCO)nc21 [N9-Isopropyl-olomoucine] | 1.05 | – |

| Molecule | Total Nuclei [1, 3] | other results |
| --- | --- | --- |
| CC1=C(O)C(=O)[C@@H]2O[C@@H]2C1=O [Terreic acid] | 1.02 | – |
| N#CC(C#N)=Cc1ccc([N+](=O)[O-])c(O)c1 [AG-126] | 0.99 | – |
| Oc1ccc(-c2nc(-c3ccc(F)cc3)c(-c3ccncc3)[nH]2)cc1 [SB-202190] | 1.08 | Total Nuclei Ratio [2, 4]: 1.08 |
| N#CC(=C(/N)Sc1ccccc1N)/C(C#N)=C(\N)Sc1ccccc1N [U-0126] | – | Total Nuclei [1]: 0.87 |
| N#CC(=Cc1ccc2[nH]ccc2c1)C(N)=C(C#N)C#N [AG-370] | 1.01 | – |
| Cc1cc2ncc(-c3ccccc3)nc2cc1C [Tyrphostin AG 1295] | 1.08 | – |
| COc1cccc(-c2cc(=O)c3ccccc3o2)c1N [PD-98059] | 0.92 | Total Nuclei Ratio [2, 4]: 0.96 |
| OC[C@H]1O[C@@H](n2cnc3cc(Cl)c(Cl)cc32)[C@H](O)[C@@H]1O [DRB, 5,6-Dichloro-1-b-D-ribofuranosylbenzimidazole] | 1.01 | – |
| CN(C)CCCn1cc(C2=C(c3c[nH]c4ccccc34)C(=O)NC2=O)c2ccccc21 [GF 109203X] | 1.05 | Total Nuclei Ratio [2, 4]: 0.82 |
| O=P(O)(O)C(O)c1ccc2ccccc2c1 (stereo not shown) [HNMPA, Hydroxy-2-naphthalenylmethylphosphonic acid] | 1.01 | – |
| COCc1cc(O)c(O)c(O)c1-c1c(COC)cc(O)c(O)c1O [HBDDE, 2,2′,3,3′,4,4′-Hexahydroxy-1,1′-biphenyl-6,6′-dimethanol dimethyl ether] | 1.07 | – |
| Cc1ccc(NC(=O)c2cccc(N(C)C)c2)cc1NC(=O)c1ccc(O)cc1 [ZM 336372] | 1.06 | – |
| N#C/C(=C\c1ccc(O)c(O)c1)C(N)=S [Tyrphostin 47] | 1.00 | – |
| CS(=O)(=O)O.Cn1cc(C2=C(c3cn(CCCSC(=N)N)c4ccccc34)C(=O)NC2=O)c2ccccc21 [Ro 31-8220] | 0.09 | – |
| Cl.Cl.O=S(=O)(NCCNC/C=C/c1ccc(Br)cc1)c1cccc2cnccc12 [H-89] | 1.09 | Total Nuclei Ratio [2, 4]: 1.08 |
| CC(C)c1cc(/C=C(\C#N)C(=O)NCCCc2ccccc2)cc(C(C)C)c1O [SU1498] | 1.01 | – |
| Cc1ccc(S(=O)(=O)/C=C/C#N)cc1 [BAY 11-7082] | 0.93 | – |
| COc1ccc(S(=O)(=O)N(CCO)c2ccccc2CN(C)CC=Cc2ccc(Cl)cc2)cc1 [KN-93] | 1.04 | Total Nuclei Ratio ([2]; 1 uM, steps 3 and 4): 1.05 and 1.04 |
| COC(=O)/C=C/c1cc(O)ccc1O [Erbstatin analog] | 0.82 | – |
| C[C@@H](N)[C@H]1CC[C@H](C(=O)Nc2ccncc2)CC1 [Y-27632] | 1.08 | – |
| CCCCCCCCCCCCC/C=C/[C@@H](O)[C@@H](N)CO [Sphingosine] | 1.04 | – |
| C/C(O)=C(\C#N)C(=O)Nc1cc(Br)ccc1Br [LFM-A13] | 0.97 | – |
| Nc1ncc2[nH]cnc2n1 [2-Aminopurine] | 1.07 | – |
| C[S+]([O-])c1ccc(-c2nc(-c3ccc(F)cc3)c(-c3ccncc3)[nH]2)cc1 (stereo not shown) [SB-203580] | 1.07 | Total Nuclei Ratio [2, 4]: 1.05 |
| O.O.O=c1c(O)c(-c2ccc(O)c(O)c2)oc2cc(O)cc(O)c12 [Quercetin dihydrate] | 0.97 | – |
| O=c1c(-c2ccc(O)cc2)coc2cc(O)cc(O)c12 [Genistein] | 1.03 | – |

| Molecule | Total Nuclei [1, 3] | other results |
| --- | --- | --- |
| Indirubin-3′-monoxime | 0.96 | – |
| CN[C@@H]1C[C@H]2O[C@@](C)([C@@H]1OC)n1c3ccccc3c3c4c(c5c6ccccc6n2c5c31)C(=O)NC4 [Staurosporine] | 0.13 | – |
| CO[C@H]1C[C@@H]2CC[C@@H](C)[C@@](O)(O2)C(=O)C(=O)N2CCCC[C@H]2C(=O)O[C@H]([C@H](C)C[C@@H]2CC[C@@H](O)[C@H](OC)C2)CC(=O)[C@H](C)/C=C(\C)[C@@H](O)[C@@H](OC)C(=O)[C@H](C)C[C@H](C)/C=C/C=C/C=C/1C [Rapamycin] | 0.47 | – |
| CN(C)c1ccc(C=C2C(=O)Nc3ccccc32)cc1 [SU 4312] | 1.07 | – |
| Cc1cc(O)c2c(=O)c3c(O)cc(O)c4c5c(O)cc(O)c6c(=O)c7c(O)cc(C)c8c1c2c(c34)c(c78)c65 [Hypericin] | 1.07 | – |
| N#C/C(=C\c1ccc(O)c(O)c1)C(=O)Nc1ccccc1 [AG-494] | 1.10 | – |
| C=CC(=O)c1ccc2ccccc2c1 [ZM 449829] | 1.01 | – |
| CCCCCCCCCCCCCCCC(=O)OC(CC(=O)O)C[N+](C)(C)C.[Cl-] (racemic) [Palmitoyl-DL-carnitine Cl] | 1.05 | – |
| CO[C@@H]1[C@H](N(C)C(=O)c2ccccc2)C[C@H]2O[C@]1(C)n1c3ccccc3c3c4c(c5c6ccccc6n2c5c31)C(=O)NC4 [PKC-412] | 0.17 | – |
| O=C(O)c1ccc2nc(-c3ccccc3)c(-c3ccccc3)nc2c1 [BML-257] | 0.98 | – |
| CC1CNCCN1S(=O)(=O)c1cccc2cnccc12 (stereo not shown) [H-7] | 1.02 | Total Nuclei Ratio [2, 4]: 1.09 |
| Cl.O=S(=O)(c1cccc2c(Cl)cccc12)N1CCCNCC1 [ML-9] | 1.06 | – |
| N#C/C(=C\c1ccc(O)c(O)c1)C(N)=O [Tyrphostin 46] | 1.05 | – |
| O=c1cc(-c2ccc(O)cc2)oc2cc(O)cc(O)c12 [Apigenin] | 1.05 | – |
| CNCCNS(=O)(=O)c1cccc2cnccc12 [H-8] | 0.99 | – |
| O=S(=O)(c1cccc2c(I)cccc12)N1CCCNCC1 [ML-7] | 0.98 | – |
| Cc1ccc(-c2nn(C(C)(C)C)c3ncnc(N)c23)cc1 [PP1] | 0.99 | – |
| COc1cc2ncnc(Nc3cccc(Cl)c3)c2cc1OC [Tyrphostin AG 1478] | 1.10 | – |
| O=C(O)c1cc(N(Cc2ccccc2O)Cc2cc(O)ccc2O)ccc1O [Lavendustin A] | 1.02 | – |
| COc1cc2ncc(-c3ccccc3)nc2cc1OC [AG-1296] | 1.09 | – |
| N#C/C(=C/c1ccc(O)c(O)c1)C(=O)NCc1ccccc1 [AG-490] | 1.04 | Total Nuclei Ratio [2, 4]: 0.99 |
| Cn1cnc2nc(NCCO)nc(NCc3ccccc3)c21 [iso-Olomoucine] | 1.04 | – |
| CC[C@H](CO)Nc1nc(NCc2ccccc2)c2ncn(C(C)C)c2n1 [Roscovitine] | 1.03 | – |
| Oc1c2ccccc2c2c3c(cccc13)N=N2 [SP 600125] | 1.04 | – |
| Oc1cc(O)cc(/C=C/c2ccc(O)c(O)c2)c1 [Piceatannol] | 1.07 | – |
